How the values were obtained:
[1] = biological target: T1, Sfβgly (GH1 β-glucosidase) (Spodoptera frugiperda, UniProt O61594); assay: hydrolysis initial rates by purified enzyme (glucose detection); assay type: biochemical
T1 construct: purified recombinant Sfβgly

[2] = biological target: T1, Sfβgly (GH1 β-glucosidase); assay: steady-state inhibition kinetics (Lineweaver-Burk) with NPβglc as substrate; also with cellobiose (Ki […]); assay type: biochemical

T1 sequence (O61594 21-509): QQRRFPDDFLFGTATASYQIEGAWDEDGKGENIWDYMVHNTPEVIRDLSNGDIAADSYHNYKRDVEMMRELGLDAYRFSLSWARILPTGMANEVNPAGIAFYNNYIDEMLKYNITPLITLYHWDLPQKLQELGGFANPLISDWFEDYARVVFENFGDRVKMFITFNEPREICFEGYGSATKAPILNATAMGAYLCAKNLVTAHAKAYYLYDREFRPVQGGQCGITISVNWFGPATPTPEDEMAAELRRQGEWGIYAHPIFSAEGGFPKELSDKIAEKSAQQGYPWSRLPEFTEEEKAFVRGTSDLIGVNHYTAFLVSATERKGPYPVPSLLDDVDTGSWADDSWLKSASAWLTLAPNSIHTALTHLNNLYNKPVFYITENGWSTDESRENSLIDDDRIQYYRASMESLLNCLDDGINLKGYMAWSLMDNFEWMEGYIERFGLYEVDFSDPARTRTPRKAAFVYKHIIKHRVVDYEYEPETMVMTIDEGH

OC[C@H]1O[C@@H](O[C@H]2[C@H](O)[C@@H](O)C(O)O[C@@H]2CO)[C@H](O)[C@@H](O)[C@@H]1O (some centres unmarked) [C2, cellobiose]
hydrolysis initial rates by purified enzyme (glucose detection) [1]: The same experiment was repeated using C2, a natural substrate of Sfβgly, and two independent enzyme samples.

NC(CO)(CO)CO [Tris, 2-amino-2-(hydroxymethyl)-1,3-propanediol]
Ki [2]: 12 ± 2 mM
